Assay results as given in publication PMC10096449, “Anti-SARS-CoV-2 Activity and Cytotoxicity of Amaryllidaceae Alkaloids from Hymenocallis littoralis” (Molecules, 2023).
Where two headings read alike, the source gives them in different places.

Experiments:
[1] = tested on: SARS-CoV-2; test: microbe, parasite or virus in culture; format: cell-based, SARS-CoV-2 isolate BetaCov/Belgium/GHB-03021/2020; settings: for EC50: read-out: EC50 (anti-SARS-CoV-2 activity); for IC50: Severe acute respiratory syndrome coronavirus 2
[2] = in vitro; settings: African green monkey
[3] = tested on: Vero-E6 cells; settings: for CC50: single experiment (duplicate experiments listed)
[4] = tested on: SARS-CoV-2; design: method as in Zhang et al. [31]; settings: RT-PCR read-out after 18–24 h; ref Zhang et al. [31]; read-out: EC50 (anti-SARS-CoV-2 activity); cited from earlier work
[5] = design: method as in Zhang et al. [31]; settings: ref Zhang et al. [31]; cited from earlier work
[6] = tested on: SARS-CoV-2; design: method as in Jin et al. [32]; settings: in Vero cells; ref Jin et al. [32]; read-out: EC50 (anti-SARS-CoV-2 activity); cited from earlier work
[7] = tested on: HEK293; design: method as in Jin et al. [32]; settings: on HEK293; ref Jin et al. [32]; cited from earlier work
[8] = tested on: SARS-CoV-2; design: method as in Ren et al. [33]; settings: in the Vero-E6 cell; ref Ren et al. [33]; read-out: EC50 (anti-SARS-CoV-2 activity); cited from earlier work
[9] = tested on: Vero-E6; design: method as in Ren et al. [33]; settings: ref Ren et al. [33]; cited from earlier work
[10] = tested on: Huh-7; design: method as in Ren et al. [33]; settings: ref Ren et al. [33]; cited from earlier work
[11] = tested on: HEK293T; design: method as in Ren et al. [33]; settings: ref Ren et al. [33]; cited from earlier work
[12] = Severe acute respiratory syndrome coronavirus 2, 96 h
[13] = CC50 (cytotoxicity on Vero-E6 cells), MTS-assay, absence of virus
[14] = CC50 (µM), single experiment (duplicate experiments listed), Vero-E6 cells
[15] = av. CC50 (µM), average of two experiments, Vero-E6 cells

SMILES	antiviral activity against SARS-CoV-2 (in words) [1]	EC50 [1, 12] [µM]	IC50 ([1]; read-out: IC50) [µM]	IC50 ([1]; read-out: av. IC50) [µM]	CC50 [2, 13] [µM]	CC50 [2, 14] [µM]	CC50 [2, 15] [µM]	other results
COc1cc2c(cc1O)[C@@H]1[C@H](O)[C@H](O)C=C3CCN(C2)[C@H]31 (racemic) [Compounds 2 and 3, (±)-2-epi-pseudolycorine]	loss of the antiviral activity	> 100	> 100	> 100	> 100	> 100	> 100	–
COc1cc2c(cc1O)C1C(O)C(O)C=C3CCN(C2)C31 (single isomer, unassigned; (+)) [Compound 3, (+)-2-epi-pseudolycorine]	lacked antiviral activity	–	–	–	–	–	–	cytotoxicity on Vero-E6 cells (in words) [3]: lacked antiviral activity, as well as cytotoxicity
Oc1ccc2c3c1OC1CC(O)CCC31CCNC2 (stereo not drawn) [Compound 1, O-demethyl-norlycoramine]	–	45	54	45.8	> 100	> 100	> 100	–
COc1cc2c(cc1O)[C@@H]1[C@H](O)[C@H](O)C=C3CCN(C2)[C@H]31 [Compound 2, (−)-2-epi-pseudolycorine]	lacked antiviral activity	–	–	–	–	–	–	cytotoxicity on Vero-E6 cells (in words) [3]: lacked antiviral activity, as well as cytotoxicity
COc1cc2c(c(O)c1OC)[C@]13CC[C@H](OC)C[C@H]1N(CC3)[C@@H]2O [Compound 4, 6α-hydroxyhippeastidine]	–	44	–	–	> 100	–	–	–
COc1cc2c(c(O)c1OC)[C@]13CC[C@H](OC)C[C@H]1N(CC3)[C@H]2O [Compound 5, 6β-hydroxyhippeastidine]	–	44	–	–	> 100	–	–	–
O[C@H]1[C@H]2c3cc4c(cc3CN3CCC(=C[C@@H]1O)[C@H]23)OCO4 [Compound 6, lycorine]	lacked selective antiviral activity	> 100	> 100	> 100	1.2	1.28	1.21	CC50 [3]: 1.14 µM; EC50 [4]: 0.18 µM; CC50 [5]: > 40 µM; EC50 [6]: 0.878 ± 0.022 µM; CC50 [7]: > 10 µM; EC50 [8]: 0.439 ± 0.122 µM; CC50 [9]: > 1000 µM; CC50 [10]: 0.834 ± 0.063 µM; CC50 [11]: 1.04 ± 0.0734 µM
O[C@H]1[C@H]2c3cc4c(cc3CN3CCC(=C[C@H]1O)[C@H]23)OCO4 [Compound 7, 2-epi-lycorine]	–	54	69.3	54.2	> 100	> 100	> 100	–
O[C@H]1[C@H]2c3cc4c(cc3CN3CCC(C[C@H]1O)[C@H]23)OCO4 (stereo partly drawn) [Compound 8, zephyranthine]	–	40 to 77	37.1	39.6	> 100	> 100	> 100	EC50 [1]: 39 µM
[O-]c1cc2c3c(c1)c1cc4c(cc1c[n+]3CC2)OCO4 [Compound 9, ungeremine]	lacked antiviral activity	> 100	> 100	> 100	> 100	> 100	> 100	antiviral activity against SARS-CoV-2 (in words) ([1]; listed as ungeremine): did not improve its anti-SARS-CoV-2 potency; cytotoxicity on Vero-E6 cells (in words) [3]: lacked antiviral activity, as well as cytotoxicity; cytotoxicity on Vero-E6 cells (in words) ([3]; listed as ungeremine): eliminated cytotoxicity on the Vero-E6 cell line
O=C1N[C@H]2[C@H](O)[C@H](O)[C@@H](O)[C@H](O)[C@@H]2c2cc3c(c(O)c21)OCO3 [Compound 10, pancratistatin]	lacked selective antiviral activity	–	> 100	> 100	0.13	0.14	–	CC50 [3]: 0.122 µM
COc1cc2c(cc1O)[C@@H](OC)O[C@@H]1CC=C3CCN(C)[C@H]3[C@H]21 [Compound 11, 9-O-demethyl-7-O-methyllycorenine]	–	40 to 77	99.4	77.2	> 100	> 100	> 100	–
